Data taken from ChEMBL document CHEMBL1201862, “PubChem BioAssay data set” (2004).
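Step 1: Grow cells in 96-well plates. Step 2: Expose to compound for 48 hours at 5 concentrations. Step 3: Interpolate endpoints linearly; if unreached, use highest concentration. GI50 is the concentration that inhibits growth by half.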 Calls of active or inactive are those of the source. Rule as the data show it: active = GI50 up to about 1.1 µM and inactive = higher.

Tests used:
Assay in all cases: NCI-60 cell line screen, 48 h
SNB-19 = tested on: SNB-19
A498 = tested on: A498
SK-MEL-28 = tested on: SK-MEL-28
HCT-15 = tested on: HCT-15
SK-OV-3 = tested on: SK-OV-3
786-0 = tested on: 786-0
UO-31 = tested on: UO-31
RPMI-8226 = tested on: RPMI-8226
OVCAR-4 = tested on: OVCAR-4
SF-268 = tested on: SF-268
COLO 205 = tested on: COLO 205
LOX IMVI = tested on: LOX IMVI
TK-10 = tested on: TK-10

Row | SMILES | GI50 (SNB-19) | GI50 (A498) | GI50 (SK-MEL-28) | GI50 (HCT-15) | GI50 (SK-OV-3) | GI50 (786-0) | GI50 (UO-31) | GI50 (RPMI-8226) | GI50 (OVCAR-4) | GI50 (SF-268) | GI50 (COLO 205) | GI50 (LOX IMVI) | GI50 (TK-10)
1 | COc1ccc(/C=C\c2cc(OC)c(OC(C)=O)c(OC)c2)cc1 | 7.24 µM (inactive) | 14.2 µM (inactive) | 3.43 µM (inactive) | 5.12 µM | 51.8 µM (inactive) | 14.9 µM (inactive) | 15.7 µM (inactive) | 12.8 µM (inactive) | 26.4 µM (inactive) | 10.5 µM (inactive) | 34.4 µM (inactive) | – | –
2 | CC1CCC(O)C(C(O)CC2CC(=O)N(C)C(=O)C2)C1 (configuration not stated) | > 100 µM (inactive) | > 100 µM (inactive) | > 100 µM (inactive) | – | > 100 µM (inactive) | > 100 µM (inactive) | > 100 µM (inactive) | > 100 µM (inactive) | > 100 µM (inactive) | > 100 µM (inactive) | > 100 µM (inactive) | > 100 µM (inactive) | > 100 µM (inactive)
3 | COC(=O)N1[C@H]2Cc3c(OC)c(C)c(OC)c(OC)c3[C@@H]1/C(=C\c1cc(OC)c(OC)c(C)c1OC)N(Cc1ccccc1)C2=O | 58.9 µM (inactive) | > 100 µM (inactive) | > 100 µM (inactive) | – | 57.3 µM (inactive) | 54 µM (inactive) | 18.7 µM (inactive) | 20.9 µM (inactive) | 6.7 µM (inactive) | 78.2 µM (inactive) | 13.8 µM (inactive) | 30.5 µM (inactive) | 33.3 µM (inactive)
4 | N#C/C(=C/c1cccc(Oc2ccccc2)c1)c1ccccc1 | – | > 100 µM (inactive) | > 100 µM (inactive) | > 100 µM | > 100 µM (inactive) | > 100 µM (inactive) | > 100 µM (inactive) | > 100 µM (inactive) | > 100 µM (inactive) | > 100 µM (inactive) | 55 µM (inactive) | > 100 µM (inactive) | > 100 µM (inactive)
5 | N/C(=N\N=C=C1C(=O)Nc2ccc(F)cc21)NO | – | > 100 µM (inactive) | > 100 µM (inactive) | > 100 µM | 59.2 µM (inactive) | > 100 µM (inactive) | – | – | > 100 µM (inactive) | > 100 µM (inactive) | > 100 µM (inactive) | > 100 µM (inactive) | > 100 µM (inactive)
6 | C[N+](C)=c1nc(N2CCc3ccccc3C2)ss1.[O-][Cl+3]([O-])([O-])[O-] | > 100 µM (inactive) | > 100 µM (inactive) | > 100 µM (inactive) | 98.2 µM | > 100 µM (inactive) | > 100 µM (inactive) | > 100 µM (inactive) | 69.8 µM (inactive) | > 100 µM (inactive) | > 100 µM (inactive) | 42.8 µM (inactive) | – | > 100 µM (inactive)
7 | Nc1ccc(C(=O)N/C(=C\c2cccc([N+](=O)[O-])c2)c2nc3c4c(ccc3[nH]2)C(=O)c2ccccc2C4=O)cc1 | 13.6 µM (inactive) | 15.5 µM (inactive) | 30.3 µM (inactive) | 70.5 µM | 19.3 µM (inactive) | 17.7 µM (inactive) | 1.86 µM (inactive) | 6.78 µM (inactive) | 15 µM (inactive) | 2.94 µM (inactive) | > 100 µM (inactive) | 15.1 µM (inactive) | 19.2 µM (inactive)
8 | O=C(Cc1ccccc1)NN1C(=O)C(Cl)C1c1ccc(O)cc1 (configuration not stated) | > 100 µM (inactive) | – | > 100 µM (inactive) | > 100 µM | > 100 µM (inactive) | > 100 µM (inactive) | 64.7 µM (inactive) | > 100 µM (inactive) | – | > 100 µM (inactive) | > 100 µM (inactive) | > 100 µM (inactive) | > 100 µM (inactive)
9 | COC(=O)c1cc(Br)c(Br)n1C | > 100 µM (inactive) | > 100 µM (inactive) | > 100 µM (inactive) | – | > 100 µM (inactive) | > 100 µM (inactive) | > 100 µM (inactive) | – | > 100 µM (inactive) | > 100 µM (inactive) | > 100 µM (inactive) | > 100 µM (inactive) | > 100 µM (inactive)
10 | Cn1cnc([N+](=O)[O-])c1Sc1nc2cccnc2[nH]1 | > 100 µM (inactive) | > 100 µM (inactive) | 62.5 µM (inactive) | > 100 µM | > 100 µM (inactive) | > 100 µM (inactive) | 89.7 µM (inactive) | 68.5 µM (inactive) | 41.1 µM (inactive) | 74.8 µM (inactive) | 17.8 µM (inactive) | 79.8 µM (inactive) | 55.6 µM (inactive)
11 | CCOC(=O)C1Oc2ccc([N+](=O)[O-])c3c2C1(O)CCC3 (configuration not stated) | > 100 µM (inactive) | 56.2 µM (inactive) | > 100 µM (inactive) | > 100 µM | > 100 µM (inactive) | > 100 µM (inactive) | 47.2 µM (inactive) | > 100 µM (inactive) | > 100 µM (inactive) | > 100 µM (inactive) | > 100 µM (inactive) | > 100 µM (inactive) | > 100 µM (inactive)
12 | CC1=C(C#N)C(N)=C2C(C)=C(C#N)C(N)=C12 | > 100 µM (inactive) | > 100 µM (inactive) | – | > 100 µM | > 100 µM (inactive) | > 100 µM (inactive) | > 100 µM (inactive) | > 100 µM (inactive) | > 100 µM (inactive) | > 100 µM (inactive) | > 100 µM (inactive) | > 100 µM (inactive) | > 100 µM (inactive)
